Measurements as given in article PMC12490239, “Combining BET inhibition with SMAC mimetics restricts tumor growth and triggers immune surveillance in preclinical cancer models” (Cell Reports Medicine, 2025).

Columns and labels:
Assay in all cases: cells
Parameters in all cases: CellTiter-Glo 2.0 luminescence proliferation/viability assay, single agents, human tumour cell line panel
MDST8 = settings: MDST8, 96 h; single agent; read-out: IC50 SMACm
Summary of the method: (§1)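 Human tumour cell lines were seeded into assay plates and held at 37°C with 5% CO2 for twenty-four hours, then exposed in triplicate to rising concentrations of the SMAC mimetic, from 4.5 nM to 10 μM, with DMSO as control. After 96 h, viability was read as CellTiter-Glo2.0 luminescence to derive single-agent IC50 values.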

RKO = settings: Homo sapiens, RKO, 96 h; single agent; read-out: IC50 SMACm
Summary of the method: as §1

HRA16 = settings: 96 h; single agent; read-out: IC50 SMACm
Summary of the method: as §1

NCI-H2122 = settings: Homo sapiens, NCI-H2122, 96 h; single agent; read-out: IC50 SMACm
Summary of the method: as §1

AGS = settings: Homo sapiens, AGS, 96 h; single agent; read-out: IC50 SMACm
Summary of the method: as §1

SNU1460 = settings: 96 h; single agent; read-out: IC50 SMACm
Summary of the method: as §1

T84 = settings: Homo sapiens, T84, 96 h; single agent; read-out: IC50 SMACm
Summary of the method: as §1

NCI-H2030 = settings: Homo sapiens, NCI-H2030, 96 h; single agent; read-out: IC50 SMACm
Summary of the method: as §1

SUIT-2 = settings: SUIT-2, 96 h; single agent; read-out: IC50 SMACm
Summary of the method: as §1

Calu-3 = settings: Homo sapiens, Calu-3, 96 h; single agent; read-out: IC50 SMACm
Summary of the method: as §1

LoVo = settings: Homo sapiens, LoVo, 96 h; single agent; read-out: IC50 SMACm
Summary of the method: as §1

SW837 = settings: Homo sapiens, SW837, 96 h; single agent; read-out: IC50 SMACm
Summary of the method: as §1

HGC-27 = settings: Homo sapiens, HGC-27, 96 h; single agent; read-out: IC50 SMACm
Summary of the method: as §1

HT-115 = settings: HT115, 96 h; single agent; read-out: IC50 SMACm
Summary of the method: as §1

SNU1544 = settings: 96 h; single agent; read-out: IC50 SMACm
Summary of the method: as §1

CN[C@@H](C)C(=O)Nc1ccc(-c2c(-c3cccnc3OC)nc3cc(C)ccn23)c(C#Cc2ccc3c(C)nccc3c2)n1 [SMACm, BI 891065] gave an IC50 (MDST8) of 4.78 µM, an IC50 (RKO) of 5.07 µM and an IC50 (HRA16) of 3.99 µM. The IC50 (NCI-H2122) was 5.15 µM, the IC50 (AGS) was 4.06 µM and the IC50 (SNU1460) was 3.15 µM. The IC50 (T84) was 4.44 µM, the IC50 (NCI-H2030) was 4.29 µM and the IC50 (SUIT-2) was 4.77 µM. For the same molecule, the IC50 (Calu-3) was 1.46 µM, the IC50 (LoVo) was 4.76 µM and the IC50 (SW837) was 6.24 µM. For the same molecule, the IC50 (HGC-27) was 2.89 µM, the IC50 (HT-115) was 3.87 µM and the IC50 (SNU1544) was 3.1 µM.
